The source of these data is publication PMC6864818, “Antioxidant, Xanthine Oxidase, α-Amylase and α-Glucosidase Inhibitory Activities of Bioactive Compounds from Rumex crispus L. Root” (Molecules, 2019).

Assay [1] can be described thus: ABTS radical cation decolorization assay. The settings on record: ABTS radical scavenging; for IC50: value in brackets.
Description: (§1) Antioxidant activity of the isolated compounds was determined using DPPH (2,2-diphenyl-1-picrylhydrazyl) radical scavenging assay, ABTS (2,2′-azinobis-(3-ethylbenzothiazoline-6-sulfonic acid)) radical cation decolorization assay, ferric reducing antioxidant power test (FRAP) following previous study [37, 38, 39] with slight modifications.
In assay [2] the target is T1, xanthine oxidase (Homo sapiens, UniProt P47989). Kind of assay: Xanthine oxidase inhibition (XOD), spectrophotometric. The class given is biochemical.
Assay [3] is described as follows: ferric reducing antioxidant power test (FRAP). As to conditions: for IC50: value in brackets.
Description: as §1
Assay [4] can be described thus: DPPH radical scavenging assay. The settings on record: for IC50: value in brackets. Background: The DPPH test is a chemical assay of radical scavenging.
Description: as §1
The target of the next assay is T2, α-glucosidase (Saccharomyces cerevisiae, UniProt P53341).
T2 construct: purchased Sigma-Aldrich
As to the kind of experiment: α-Glucosidase inhibition (AGI), pNPG substrate. The class given is biochemical. On the procedure: The α-glucosidase inhibitory activity of isolated fractions was assayed using a synthetic substrate p-nitrophenyl-α-D-glucopyranoside (pNPG). […] (Table 5).
The anti-α-glucosidase activity of C1–C3 was evaluated using a method described previously with some modifications. In brief, an amount of 20 µL methanolic stock solution of isolated compounds was pre-mixed with an equal volume of 0.1 M potassium phosphate buffer (pH 7) and 40 µL of α-glucosidase (from Saccharomyces cerevisiae, Sigma-Aldrich, St. Louis, MO, USA) enzyme solution (0.5 U/mL in 0.1 M potassium phosphate buffer, pH 7). After 6 min incubation at 25 °C, a 20 µL aliquot of 5 mM p-nitrophenyl-α-D-glucopyranoside (pNPG) substrate (in 0.1 M potassium phosphate buffer, pH 7) was added to each reaction and the mixture was incubated for another 8 min. The reaction was terminated by adding 100 µL of 0.2 M Na2CO3, and absorbance was recorded at 405 nm.

The target of assay [5] is T1, xanthine oxidase. As to conditions: modified xanthine oxidase inhibition methods; ref [33]; cited from earlier work.

Values after ≈ are worked out from the molar mass of the structure shown. Values joined by “and” are separate entries in the source; they are usually repeats but may differ in a detail not shown here. Equal entries are not always repeated. Where two headings read alike, the source gives them in different places. Marks after values point to notes of the source that are not given here.

T2 sequence (P53341 whole entry): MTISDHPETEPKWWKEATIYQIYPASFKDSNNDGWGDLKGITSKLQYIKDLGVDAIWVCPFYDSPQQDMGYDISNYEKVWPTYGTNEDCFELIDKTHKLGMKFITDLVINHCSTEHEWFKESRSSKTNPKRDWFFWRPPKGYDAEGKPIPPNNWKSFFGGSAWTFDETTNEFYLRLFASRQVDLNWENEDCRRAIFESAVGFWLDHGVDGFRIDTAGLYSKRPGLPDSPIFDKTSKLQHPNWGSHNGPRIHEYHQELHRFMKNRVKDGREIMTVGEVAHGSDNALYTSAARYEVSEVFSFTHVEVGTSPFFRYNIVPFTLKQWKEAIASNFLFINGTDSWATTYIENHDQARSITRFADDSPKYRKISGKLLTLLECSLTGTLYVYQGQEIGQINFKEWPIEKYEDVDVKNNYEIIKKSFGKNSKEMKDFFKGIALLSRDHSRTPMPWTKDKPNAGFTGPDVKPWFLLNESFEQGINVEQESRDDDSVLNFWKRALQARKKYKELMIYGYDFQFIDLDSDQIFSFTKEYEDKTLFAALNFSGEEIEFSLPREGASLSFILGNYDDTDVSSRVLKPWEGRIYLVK
T1 sequence (P47989 whole entry, species assumed): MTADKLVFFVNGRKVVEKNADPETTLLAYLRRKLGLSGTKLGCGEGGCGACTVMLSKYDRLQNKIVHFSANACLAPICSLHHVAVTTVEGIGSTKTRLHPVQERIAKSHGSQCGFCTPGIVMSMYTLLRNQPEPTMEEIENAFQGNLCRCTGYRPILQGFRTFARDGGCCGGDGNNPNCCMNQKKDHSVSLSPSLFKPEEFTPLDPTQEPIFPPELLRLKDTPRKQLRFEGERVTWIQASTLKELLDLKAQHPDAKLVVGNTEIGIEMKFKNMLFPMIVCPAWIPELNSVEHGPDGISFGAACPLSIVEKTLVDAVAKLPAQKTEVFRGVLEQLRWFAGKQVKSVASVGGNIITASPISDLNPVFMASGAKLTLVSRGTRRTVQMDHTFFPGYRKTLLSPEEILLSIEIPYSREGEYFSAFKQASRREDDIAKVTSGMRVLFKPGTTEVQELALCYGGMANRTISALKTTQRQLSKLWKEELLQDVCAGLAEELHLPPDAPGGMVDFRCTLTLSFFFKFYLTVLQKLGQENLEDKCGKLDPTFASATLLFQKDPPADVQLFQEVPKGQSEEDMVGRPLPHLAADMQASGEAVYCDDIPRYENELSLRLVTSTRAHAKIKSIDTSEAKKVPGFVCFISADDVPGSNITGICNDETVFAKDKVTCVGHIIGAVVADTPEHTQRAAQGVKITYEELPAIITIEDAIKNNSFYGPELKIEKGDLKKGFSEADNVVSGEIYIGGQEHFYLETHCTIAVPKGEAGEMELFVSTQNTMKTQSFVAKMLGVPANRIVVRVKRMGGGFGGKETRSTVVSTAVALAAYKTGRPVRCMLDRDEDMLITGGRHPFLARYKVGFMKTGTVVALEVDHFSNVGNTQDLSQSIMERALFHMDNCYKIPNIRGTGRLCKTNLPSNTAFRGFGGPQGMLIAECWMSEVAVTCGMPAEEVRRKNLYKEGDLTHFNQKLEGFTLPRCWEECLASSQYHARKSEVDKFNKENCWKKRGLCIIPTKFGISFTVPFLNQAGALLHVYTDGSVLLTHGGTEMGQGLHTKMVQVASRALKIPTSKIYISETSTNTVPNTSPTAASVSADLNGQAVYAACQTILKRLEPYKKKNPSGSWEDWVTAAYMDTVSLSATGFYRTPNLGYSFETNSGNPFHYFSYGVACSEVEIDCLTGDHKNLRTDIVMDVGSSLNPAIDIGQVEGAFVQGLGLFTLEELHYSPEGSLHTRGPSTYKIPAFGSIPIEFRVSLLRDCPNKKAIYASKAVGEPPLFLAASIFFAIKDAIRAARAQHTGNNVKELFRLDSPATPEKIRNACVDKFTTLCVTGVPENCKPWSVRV

`Cc1cc(O)c2c(c1)C(=O)c1cccc(O)c1C2=O` [Fraction C2, 1,8-dihydroxy-3-methylanthraquinone]: the “IC50 ABTS” value in assay [1] was 34.3 ± 0.7^c µg/mL. The concentration for half-maximal inhibition (IC50) in assay [1] was 135 µM; at xanthine oxidase [2], 143 µM; on xanthine oxidase [2] (value in brackets), 143 µM; in assay [3] it was 1.23 mM; in assay [4], 39.4 µM; on α-glucosidase (pNPG), 79.1 µM. Besides, the half-inhibitory concentration (IC50) against α-glucosidase (value in brackets) was determined as 79.1 µM. In addition, in assay [3], the “IC50 FRAP” value is reported as 312.6 ± 6.3^c µg/mL. Further, the entries for the “IC50 DPPH” value in assay [4] and in assay [4] (listed as 1) were 10.0 ± 0.3^c µg/mL and 9.8 µg/mL (≈ 38.5 µM), respectively.
In the case of `COc1c(O)cc(O)c2c(=O)cc(-c3ccccc3)oc12` [wogonin], the concentration for half-maximal inhibition (IC50) on xanthine oxidase [5] was 157 µM.
For the compound `O=C(O)[C@H]1O[C@@H](Oc2cc3oc(-c4ccccc4)cc(=O)c3c(O)c2O)[C@H](O)[C@@H](O)[C@@H]1O` [baicalin], on xanthine oxidase [5], the IC50 is 215 µM.
With `Cc1cc(C(C)(C)C)c(O)c(C(C)(C)C)c1` [BHT, reference compound], in assay [1], the “IC50 ABTS” value is on record as 46.9 ± 0.9^b µg/mL and half-maximal inhibition (IC50) required 213 µM. In assay [3], the “IC50 FRAP” value is given as 422.1 ± 1.1^b µg/mL and the 50% inhibitory concentration (IC50) amounted to 1.92 mM. Moreover, in assay [4], the “IC50 DPPH” value was 19.4 µg/mL and 19.2 ± 0.3^b µg/mL; the IC50 was determined as 87.1 µM.
For `COc1cc(O)c2c(c1)C(=O)c1cc(C)cc(O)c1C2=O` [Fraction C3, 1,8-dihydroxy-3-methoxy-6-methylanthraquinone], the “IC50 ABTS” value in assay [1] is listed as 44.8 ± 0.8^b µg/mL. Further, the half-maximal inhibitory concentration (IC50) is 158 µM in assay [1]; 158 µM at xanthine oxidase [2]; 158 µM at xanthine oxidase [2] (value in brackets); 1.44 mM in assay [3]; 42.3 µM in assay [4]; 66.5 µM against α-glucosidase (pNPG). The 50% inhibitory concentration (IC50) against α-glucosidase (value in brackets) was 66.5 µM. The “IC50 FRAP” value in assay [3] was 408.6 ± 6.8^b µg/mL. For the same compound, the “IC50 DPPH” value in assay [4] is 12.0 ± 0.2^c µg/mL; in assay [4] (listed as 2), 12.1 µg/mL (≈ 42.6 µM).

In general, IC50 refers to the midpoint of a concentration-inhibition curve.
